Reference: patent US12365677B2, “Degraders that target proteins via KEAP1” (DANA-FARBER CANCER INSTITUTE, INC., priority 2018, dated 2025)

Columns and labels:
Type in all cases: cell-based
[1] = system: BRD2-BD1, BRD2-BD2, BRD3-BD1, BRD3-BD2, BRD4-BD1, BRD4-BD2 as GFP fusion proteins; assay: FACS eGFP/mCherry reporter cell lines for single bromodomains, degradation compared across bromodomains; details: concentration series starting at 20 μM, 5× dilution, 24 hours at 37° C.
Excerpt: (§1) To evaluate the activity of KEAP1-BRD targeting degraders in the cell, FACS-enabled stable reporter cell lines for single Bromodomain (BD) of the BRD2, 3 and 4 proteins were developed using the pCDNA5/FRT vector of the FLp-In system and followed the manufacturer's protocol.
(§2) A DNA sequence was constructed where a single BD (BD1 or BD2) of a BRD protein was tagged at the C-terminus with an enhanced Green Fluorescent Protein (eGFP). This sequence was followed by a P2A linker and a sequence that codes for mCherry fluorescent protein. The P2A linker that is located between the eGFP-tagged protein and the mCherry causes a single cut in the backbone amide bonds of the polypeptide during the translation of the mRNA, resulting in generation of two polypeptide chains, an eGFP-tagged protein and a mCherry protein. The expression level of these two polypeptides is therefore identical as they originate from a single mRNA, making the mCherry signal an expression level reporter as an internal reference. […]
(§3) The treated cells were then harvested by trypsin digest, brought to a volume of 200 μL with DMEM medium supplemented with 10% FBS and transferred to a 96-well assay plate for FACS reading. The eGFP/RFP ratio for each condition was then calculated and normalized against the zero-compound condition and plotted. […]

BRD2BD2 = target: T1, BRD2BD2 (Homo sapiens, UniProt P25440); assay: Rescue of degradation in reporter cell line by pre-treatment with inhibitors (compound 1); details: then concentration series of the degrader for 24 hours
T1 construct: a single BD (BD1 or BD2) of a BRD protein was tagged at the C-terminus with an enhanced Green Fluorescent Protein (eGFP); P2A linker (part left after the co-translational cut; mCherry is released as a separate chain) (C); expressed in transfected cells
T1 sequence (P25440 344-453): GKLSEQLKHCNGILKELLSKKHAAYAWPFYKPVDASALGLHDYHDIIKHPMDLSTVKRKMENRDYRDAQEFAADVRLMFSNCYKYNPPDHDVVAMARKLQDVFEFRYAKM
Excerpt: as §1, §2
The treated cells were then harvested by trypsin digest, brought to a volume of 200 μL with DMEM medium supplemented with 10% FBS and transferred to a 96-well assay plate for FACS reading. The eGFP/RFP ratio for each condition was then calculated and normalized against the zero-compound condition and plotted.
The rescue of BRD2BD2 degradation with two inhibitors JQ1 and MLN4924 was then determined. […]

BRD3 = target: T2, BRD3 (Homo sapiens, UniProt Q15059); assay: Immunoblot of MM.1S multiple myeloma cells; details: MM.1S cells
T2 construct: endogenous in cells; host or cells: MM.1S multiple myeloma cells
T2 sequence (Q15059 whole entry): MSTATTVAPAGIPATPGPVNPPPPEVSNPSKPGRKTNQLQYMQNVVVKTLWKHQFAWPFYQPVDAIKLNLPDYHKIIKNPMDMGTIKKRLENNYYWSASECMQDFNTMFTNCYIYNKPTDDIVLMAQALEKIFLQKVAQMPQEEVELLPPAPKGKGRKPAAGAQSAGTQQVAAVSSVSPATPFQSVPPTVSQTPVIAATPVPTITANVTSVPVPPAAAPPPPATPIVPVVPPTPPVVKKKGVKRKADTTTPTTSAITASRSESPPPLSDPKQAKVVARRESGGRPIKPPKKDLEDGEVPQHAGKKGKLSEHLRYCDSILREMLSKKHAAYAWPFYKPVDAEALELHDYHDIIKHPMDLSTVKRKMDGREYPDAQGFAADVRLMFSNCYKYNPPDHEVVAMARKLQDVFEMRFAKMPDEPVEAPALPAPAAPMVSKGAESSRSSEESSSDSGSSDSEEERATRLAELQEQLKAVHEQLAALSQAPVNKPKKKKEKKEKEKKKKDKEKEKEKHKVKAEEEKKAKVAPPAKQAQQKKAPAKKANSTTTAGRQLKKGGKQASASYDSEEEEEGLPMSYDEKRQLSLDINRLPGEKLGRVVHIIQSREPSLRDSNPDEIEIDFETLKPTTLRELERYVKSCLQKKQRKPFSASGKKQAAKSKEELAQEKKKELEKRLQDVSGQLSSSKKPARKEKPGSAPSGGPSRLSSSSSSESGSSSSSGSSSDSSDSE
Description: (§4) MM.1S multiple myeloma cells were treated with 0, 1, 5 μM bifunctional compound 1 and 9 or bifunctional compound 20 (0.5 μM, as a positive control, known degrader of BRD) for 14 or 24 h, then lysed and immunoblotted with antibodies to BRD2, BRD3, BRD4 and β-Actin.
(§5) MM.1S multiple myeloma cells were treated with 0, 1, 5 μM bifunctional compound 1 and 9 or bifunctional compound 20 (0.5 μM, as a positive control) for 14 or 24 h, then lysed and immunoblotted with antibodies to BRD2, BRD3, BRD4 and β-Actin.

BRD4 = target: T3, BRD4 (Homo sapiens, UniProt O60885); assay: Immunoblot of MM.1S multiple myeloma cells; details: MM.1S cells
T3 construct: endogenous in cells; host or cells: MM.1S multiple myeloma cells
Description: as §4, §5

BRD2 [2] = target: T4, BRD2 (Homo sapiens, UniProt P25440); assay: Immunoblot of MM.1S multiple myeloma cells; set-up: endogenous in cells; host or cells: MM.1S multiple myeloma cells; details: MM.1S cells
T4 sequence (P25440 whole entry): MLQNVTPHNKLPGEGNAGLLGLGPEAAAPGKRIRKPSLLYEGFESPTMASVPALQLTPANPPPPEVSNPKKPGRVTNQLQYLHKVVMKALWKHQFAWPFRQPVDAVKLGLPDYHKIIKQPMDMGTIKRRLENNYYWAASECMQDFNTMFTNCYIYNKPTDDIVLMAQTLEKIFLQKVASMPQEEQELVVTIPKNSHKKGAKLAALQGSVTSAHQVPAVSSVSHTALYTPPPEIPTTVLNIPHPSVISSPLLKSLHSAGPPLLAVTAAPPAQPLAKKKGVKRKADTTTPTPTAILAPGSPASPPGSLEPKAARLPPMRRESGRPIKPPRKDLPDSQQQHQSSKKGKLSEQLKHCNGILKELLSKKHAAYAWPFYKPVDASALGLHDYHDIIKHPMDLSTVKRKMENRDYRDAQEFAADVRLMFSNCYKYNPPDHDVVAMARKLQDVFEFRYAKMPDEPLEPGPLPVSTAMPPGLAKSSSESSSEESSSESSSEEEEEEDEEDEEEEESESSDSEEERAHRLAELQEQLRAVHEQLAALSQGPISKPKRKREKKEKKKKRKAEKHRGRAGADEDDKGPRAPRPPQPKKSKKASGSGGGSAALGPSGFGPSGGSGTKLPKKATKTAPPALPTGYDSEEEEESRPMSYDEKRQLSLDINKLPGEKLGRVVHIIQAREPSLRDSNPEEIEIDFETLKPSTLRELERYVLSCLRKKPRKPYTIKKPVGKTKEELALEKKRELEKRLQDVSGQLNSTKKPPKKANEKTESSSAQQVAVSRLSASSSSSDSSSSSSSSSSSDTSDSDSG
Description: as §4, §5

BRD2^BD1 [3] = target: T5, BRD2^BD1 (Homo sapiens, UniProt P25440); assay: Rescue of degradation in reporter cell line by pre-treatment with inhibitors (compound 9); details: pre-treated with 10 μM JQ1 for 1 hour, then concentration series of the degrader for 24 hours
T5 construct: a single BD (BD1 or BD2) of a BRD protein was tagged at the C-terminus with an enhanced Green Fluorescent Protein (eGFP); P2A linker (part left after the co-translational cut; mCherry is released as a separate chain) (C); expressed in transfected cells
T5 sequence (P25440 74-180 limits assumed): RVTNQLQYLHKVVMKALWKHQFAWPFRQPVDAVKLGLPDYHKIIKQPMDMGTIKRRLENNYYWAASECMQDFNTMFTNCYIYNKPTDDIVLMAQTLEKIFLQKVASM
T5 sequence (Q14145 whole entry, further chain): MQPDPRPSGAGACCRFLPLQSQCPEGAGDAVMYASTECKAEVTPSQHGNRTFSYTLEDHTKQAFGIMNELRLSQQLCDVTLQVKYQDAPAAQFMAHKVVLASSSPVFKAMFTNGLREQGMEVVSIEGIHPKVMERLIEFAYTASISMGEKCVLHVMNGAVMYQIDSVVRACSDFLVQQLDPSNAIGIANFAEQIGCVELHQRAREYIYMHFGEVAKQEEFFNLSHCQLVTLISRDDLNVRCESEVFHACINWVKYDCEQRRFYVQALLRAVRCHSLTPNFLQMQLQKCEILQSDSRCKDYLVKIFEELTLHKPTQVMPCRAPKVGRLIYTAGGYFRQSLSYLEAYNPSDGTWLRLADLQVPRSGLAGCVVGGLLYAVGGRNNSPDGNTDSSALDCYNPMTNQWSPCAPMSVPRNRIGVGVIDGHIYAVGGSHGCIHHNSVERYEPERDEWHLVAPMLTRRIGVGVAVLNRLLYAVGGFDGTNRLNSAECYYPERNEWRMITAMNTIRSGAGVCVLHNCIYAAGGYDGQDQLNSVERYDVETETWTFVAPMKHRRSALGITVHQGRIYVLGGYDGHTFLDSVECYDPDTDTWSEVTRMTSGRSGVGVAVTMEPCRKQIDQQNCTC
Excerpt: as §1
(§6) A DNA sequence was constructed where a single BD (BD1 or BD2) of a BRD protein was tagged at the C-terminus with an enhanced Green Fluorescent Protein (eGFP). This sequence was followed by a P2A linker and a sequence that codes for mCherry fluorescent protein. The P2A linker that is located between the eGFP-tagged protein and the mCherry causes a single cut in the backbone amide bonds of the polypeptide during the translation of the mRNA, resulting in generation of two polypeptide chains, an eGFP-tagged protein and a mCherry protein. The expression level of these two polypeptides is therefore identical as they originate from a single mRNA, making the mCherry signal an expression level reporter as an internal reference.
(§7) The reporter cell lines were seeded on a 48-well plate the day before. […]
as §3

BRD2^BD1 [4] = target: T6, BRD2^BD1 (Homo sapiens, UniProt P25440+Q14145); assay: as above; details: pre-treated with 10 μM MLN4924 for 1 hour, then concentration series of the degrader for 24 hours
T6 construct: a single BD (BD1 or BD2) of a BRD protein was tagged at the C-terminus with an enhanced Green Fluorescent Protein (eGFP); P2A linker (part left after the co-translational cut; mCherry is released as a separate chain) (C); expressed in transfected cells
T6 sequence (P25440 74-180 limits assumed): as the sequence (P25440 74-180 limits assumed) above
T6 sequence (Q14145 whole entry): as the sequence (Q14145 whole entry, further chain) above
Excerpt: as §1, §6, §7, §3

BRD2 [5] = target: T4, BRD2; assay: TMT quantitative proteomics, change in relative protein abundance in HEK293T cells; set-up: endogenous in cells; host or cells: HEK293T cells; details: 5 μM, 6 hours
Description: Lysis buffer (8 M Urea, 50 mM NaCl, 50 mM 4-(2hydroxyethyl)-1-piperazineethanesulfonic acid (EPPS) pH 8.5. Protease and Phosphatase inhibitors from Roche) was added to the cell pellets and homogenized by 20 passes through a 21 gauge (1.25 in. long) needle to achieve a cell lysate with a protein concentration between 1-4 mg/mL. A micro-BCA assay (Pierce™) was used to determine the final protein concentration in the cell lysate. 200 μg of protein for each sample were reduced and alkylated as previously described. Proteins were precipitated using methanol/chloroform. In brief, four volumes of methanol were added to the cell lysate, followed by one volume of chloroform, and finally three volumes of water. The mixture was vortexed and centrifuged to separate the chloroform phase from the aqueous phase. […]
Precipitated protein was resuspended in 4 M urea, 50 mM HEPES pH 7.4, followed by dilution to 1 M urea with the addition of 200 mM EPPS, pH 8. […] The sample channels were combined at a 1:1:1:1:1:1:1:1:1:1 ratio, desalted using C18 solid phase extraction cartridges (Waters™) and analyzed by LC-MS for channel ratio comparison.
Samples were then combined using the adjusted volumes determined in the channel ratio analysis and dried down in a speed vacuum. […]

| rescue of BRD2BD2 degradation by JQ1 (BRD2BD2; pre-treated with 10 μM JQ1 for 1 hour) | degradation of BRD3 (immunoblot) (BRD3; 1 μM, both 14 and 24 h) | degradation of BRD4 (immunoblot) (BRD4; 1 μM, both 14 and 24 h) | degradation of BRD2 (immunoblot) (BRD2 [2]; 1 μM, both 14 and 24 h) | rescue of BRD2^BD1 degradation by JQ1 (BRD2^BD1 [3]) | degradation of BRD3 (immunoblot) (BRD3; 5 μM, 24 h) | degradation of BRD4 (immunoblot) (BRD4; 5 μM, 24 h) | BRD2 degradation (relative protein abundance vs DMSO) (BRD2 [5]) | degradation of BRD2 (immunoblot) (BRD2 [2]; 5 μM, 24 h) | Compound | degradation of BRD bromodomain reporters (normalized eGFP/RFP ratio), comparison between bromodomains [1] | rescue of BRD2BD2 degradation by MLN4924 (BRD2BD2; pre-treated with 10 μM MLN4924 for 1 hour) | degradation of BRD3 (immunoblot), hook effect (BRD3; 5 μM, 14 or 24 h) | degradation of BRD4 (immunoblot), hook effect (BRD4; 5 μM, 14 or 24 h) | degradation of BRD2 (immunoblot), hook effect (BRD2 [2]; 5 μM, 14 or 24 h) | rescue of BRD2^BD1 degradation by MLN4924 (BRD2^BD1 [4]) |
| --- | --- | --- | --- | --- | --- | --- | --- | --- | --- | --- | --- | --- | --- | --- | --- |
| can be rescued by JQ1 | strongly induced the degradation | strongly induced the degradation | slightly decreased the abundance | – | – | – | – | – | COc1cc(C(CC(=O)O)c2ccc(C)c(CN3C[C@@H](C)Oc4cc(CCCCCCNC(=O)C[C@@H]5N=C(c6ccc(Cl)cc6)c6c(sc(C)c6C)-n6c(C)nnc65)ccc4S3(=O)=O)c2)cc2nnn(C)c12 (stereo partly drawn) [compound 1, 3-(3-(((R)-7-(6-(2-((S)-4-(4-chlorophenyl)-2,3,9-trimethyl-6H-thieno[3,2-f][1,2,4]triazolo[4,3-a][1,4]diazepin-6-yl)acetamido)hexyl)-4-methyl-1,1-dioxido-3,4-dihydro-2H-benzo[b][1,4,5]oxathiazepin-2-yl)methyl)-4-methylphenyl)-3-(7-methoxy-1-methyl-1H-benzo[d][1,2,3]triazol-5-yl)propanoic acid] | with the exception of BRD4BD1, bifunctional compound 1 targeted BRD-BD proteins with similar efficiency | rescued by the neddylation inhibitor, MLN4924 | a decrease in BRD2, BRD3 and BRD4 degradation were observed | a decrease in BRD2, BRD3 and BRD4 degradation were observed | a decrease in BRD2, BRD3 and BRD4 degradation were observed | – |
| – | – | – | – | can be rescued by JQ1 | slightly degraded | slightly degraded | BRD2 degradation was observed | slightly degraded | COc1cc(C(CC(=O)O)c2ccc(C)c(CN(C)S(=O)(=O)c3ccc(OCCCCCCNC(=O)C[C@@H]4N=C(c5ccc(Cl)cc5)c5c(sc(C)c5C)-n5c(C)nnc54)cc3)c2)cc2nnn(C)c12 (stereo partly drawn) [compound 9, 3-(3-((4-(6-(2-((6S)-4-(4-chlorophenyl)-2,3,9-trimethyl-6H-thieno[3,2-f][1,2,4]triazolo[4,3-a][1,4]diazepin-6-yl)acetamido)hexyloxy)-N-methylphenylsulfonamido)methyl)-4-methylphenyl)-3-(7-methoxy-1-methyl-1H-benzo[d][1,2,3]triazol-5-yl)propanoic acid] | modest preference for BRD2^BD1 and BRD4^BD1 | – | – | – | – | rescued by the neddylation inhibitor, MLN4924 |
